In US11643405B2, “Compound for treatment or prevention of liver diseases” (JIANGSU ATOM BIOSCIENCE AND PHARMACEUTICAL CO., LTD., priority 2018, dated 2023):
Values after ≈ are worked out from the molar mass of the structure shown. Where two headings read alike, the source gives them in different places.

Assays:
[1] = test system: zebrafish non-alcoholic fatty liver; assay: Fat reduction or elimination effect on thioacetamide-induced zebrafish non-alcoholic fatty liver (Oil Red O staining); assay type: in vivo; settings: for The total optical density of liver fat: mean ± SE, n = 10
Procedure: 40 mM stock solution of test compounds 4, 5, 6, 7, 46, 67, 78, 85, 92 and 101 were prepared with DMSO, and stored in a refrigerator at −20° C. The positive control compound S-adenosylmethionine (SAM) was purchased from Aladdin Reagent (Shanghai) Co., Ltd., with the batch number F1523051, which was prepared into a 50 mM stock solution with DMSO. The control compound silymarin was purchased from Shanghai Dibai Biotechnology Co., Ltd., with the batch number EE09, which was prepared into a 40 mM stock solution with DMSO. Thioacetamide was purchased from Sigma-Aldrich, with the batch number BCBV3031, which wasprepared into a 1 M stock solution with DMSO. Oil Red O was purchased from Sigma-Aldrich, with the batch number SLBP5248V. 4% paraformaldehyde was purchased from Dingguo Biotechnology Co., Ltd., with the batch number 773001800. Propylene glycol was purchased from Sinopharm Chemical Reagent Co., Ltd., with the batch number 20170615.
The melanin allele mutant translucent Albino line zebrafish was reproduced in natural paired mating. The fish age was 3 days after fertilization, with 30 fish per experimental group.
The above zebrafish were raised in fish farming water at 28° C. (water quality: 200 mg instant sea salt was added to 1 L of reverse osmosis water, conductivity was 480-510 μS/cm; pH was 6.9-7.2; hardness was 53.7-71.6 mg/L CaCOs), the experimental animal use license number was: SYXK (Zhejiang) 2012-0171. Feeding management met the requirements of international AAALAC certification.
Three days after fertilization, the normal melanin allele mutant translucent Albino strain of zebrafish was randomly selected and placed in a six well plate with 30 fish per well (i.e. each experimental group), and then thioacetamide with the final concentration of 7 mM was used to treat zebrafish for 72 hours to establish the non-alcoholic fatty liver model.
The zebrafish were transferred to a six-well plate, with 30 fish per well (i.e., each experimental group) randomly. Non-alcoholic fatty liver model in zebrafish were induced by thioacetamide. 40 mM test compounds 4, 5, 6, 7, 46, 67, 78, 85, 92 and 101 were quantitatively transferred to a six-well plate, and diluted with water to the corresponding concentration. Test compounds 4, 5, 6 and 7 were formulated into two dose groups with final concentration of 100 μM and 200 μM, respectively; test compound 46 was formulated into a dose group with final concentration of 200 μM; test compounds 67, 78, 85, 92 and 101 were formulated into dose groups with a final concentration of 100 μM; 50 mM positive control SAM was formulated with water to a dose group with final concentration of 50 μM, and a 40 mM positive control silymarin was formulated with water to two concentration dose groups with final concentration of 100 μM and 200 μM. A normal control group (zebrafish treated with fish farming water) and a model control group were set at the same time, and the total volume of each well was 3 mL. Except for the normal control group, the other experimental groups were treated with thioacetamide for 72 hours and stained with Oil Red O. After staining, 10 zebrafish were randomly selected from each experimental group and photographed under a dissecting microscope, NIS-Elements D 3.10 advanced image processing software was used to perform image analysis and collect data, the total optical density (S) of zebrafish liver fat was statistically analyzed, and for the inhibitory effect of each experimental group on liver steatosis of zebrafishwas evaluated by the following formula, the results of statistical analysis were expressed as mean±SE: Inhibition rate of liver steatosis (%)=[S(model control group)−S(test compound group)]/[S(model control group)−S(normal control group)]×100%
Statistical analysis was performed using analysis of variance and Dunnett's T-test, and p<0.05 indicated a significant difference. […]

[2] = Determination of compound solubility in PBS buffer (LC-MS/MS); assay type: physicochemical; settings: for solubility at 2 h: PBS buffer, aqueous buffer, kinetic from dmso stock, stirred 2 hours, read-out: Solubility
Procedure: The test compounds were 7, 67 and 85, respectively; the control compound was silymarin, purchased from Shanghai Dibai Biotechnology Co., Ltd., with the batch number HH06. Both the test compounds and the control compound were prepared into 10 mM stock solutions using DMSO. Phosphate buffered saline (PBS), with pH of 4.0 and 7.4, was used to test the solubility of the test compounds.
Treatment of test compound and control compound: 30 μL of test compound or control compound stock solution (10 mM) per well was added in a specially made solubility sample plate, and then 970 μL of PBS with different pH was added to each well (pH was 4.0 and 7.4, respectively). Repeated wells were set in the test. A stir bar was added to each well that was covered with a polytetrafluoroethylene or silica gel plug. Stirring was performed at 25° C. at 1100 rpm for 2 hours. 10 μL of sample was taken from each well, and then 990 μL of water and acetonitrile mixture (including internal standard substance) was added to mix well, followed by filtering with a filter plate.
Standard treatment: 10 mM stock solution was diluted with DMSO to 300 μM, then 10 μL of compound diluent was taken, and 990 μL of water and acetonitrile mixture (including internal standard substance) was added to mix well and formulated into a standard solution with the final concentration 3 μM.
The solubility sample plate was placed in the autosampler and the LC-MS/MS method was used for analysis. The concentration of the test compound was calculated by the response value of the test compound and standard, and the concentration of the standard.

COc1cc(C2Oc3cc(C4Oc5cc(O)cc(O)c5CC4O)cc(O)c3OC2CO)ccc1O (stereo not drawn) [Compound 7, 2-{8-hydroxy-3-(4-hydroxy-3-methoxyphenyl)-2-hydroxymethyl-2,3-dihydrobenzo[b][1,4]dioxan-6-yl}chroman-3,5,7-triol]
Therapeutic effect on non-alcoholic fatty liver of zebrafish (in words) ([1]; 100 μM): significant therapeutic effects | The total optical density of liver fat ([1]; 100 μM): 17835 ± 351 Pixels | Therapeutic effect on zebrafish non-alcoholic fatty liver (in words) ([1]; 200 μM): significant therapeutic effect | The total optical density of liver fat ([1]; 200 μM): 18090 ± 437 Pixels | inhibition at 100 µM ([1]; Danio rerio, 100 μM, read-out: Inhibition rate of liver steatosis): 98% | inhibition at 200 µM ([1]; Danio rerio, 200 μM, read-out: Inhibition rate of liver steatosis): 93% | solubility at 2 h ([2]; PBS pH = 4.0, 25° C.): 209 µM (≈ 101 µg/mL) | solubility at 2 h ([2]; PBS pH = 7.4, 25° C.): 214 µM (≈ 104 µg/mL) | Solubility in PBS buffer solution compared with silymarin (in words) ([2]; pH 4.0 and 7.4): significantly higher than that of silymarin
